From BigSolDB 2.1

## Cc1cc(C)c(S(=O)(=O)NC23CC4CC(CC(C4)C2)C3)c(C)c1
In n-hexane, 293.15 K
  solubility (mole fraction): 0.000265
In n-hexane, 298.15 K
  solubility (mole fraction): 0.000307
In n-hexane, 303.15 K
  solubility (mole fraction): 0.000366
In n-hexane, 308.15 K
  solubility (mole fraction): 0.000444
In n-hexane, 313.15 K
  solubility (mole fraction): 0.000495
In n-octanol, 293.15 K
  solubility (mole fraction): 0.00383
In n-octanol, 298.15 K
  solubility (mole fraction): 0.00452
In n-octanol, 303.15 K
  solubility (mole fraction): 0.00562
In n-octanol, 308.15 K
  solubility (mole fraction): 0.0068
In n-octanol, 313.15 K
  solubility (mole fraction): 0.00809

## CC12CC3CC(C)(C1)CC(NS(=O)(=O)c1ccc([N+](=O)[O-])cc1)(C3)C2
In n-hexane, 293.15 K
  solubility (mole fraction): 4.22e-05
In n-hexane, 298.15 K
  solubility (mole fraction): 5.67e-05
In n-hexane, 303.15 K
  solubility (mole fraction): 6.92e-05
In n-hexane, 308.15 K
  solubility (mole fraction): 8.55e-05
In n-hexane, 313.15 K
  solubility (mole fraction): 0.000105
In n-octanol, 293.15 K
  solubility (mole fraction): 0.00362
In n-octanol, 298.15 K
  solubility (mole fraction): 0.00423
In n-octanol, 303.15 K
  solubility (mole fraction): 0.00511
In n-octanol, 308.15 K
  solubility (mole fraction): 0.0058
In n-octanol, 313.15 K
  solubility (mole fraction): 0.00664
